In patent US12048766B2, “Gamma polyglutamated tetrahydrofolates and uses thereof” (L.E.A.F. HOLDINGS GROUP LLC, priority 2018, dated 2024):

Assays:
HT-29 (colon cancer) = experiment: CellTiter-Glo luminescent cell viability assay, HT-29; assay type: cell-based, human; settings: 48 hours, FIG. 3
Protocol: Luciferase luminescence were recorded for each well.

AML12 liver cells = experiment: Toxicity on AML12 liver cells; assay type: cell-based; settings: all doses studied (16 to 128 nM); 48 hours; FIG. 14
Source text: (§1) Methodologies used for cell line AML12 (non-cancerous liver cells) and CCD841 (non-cancerous colon epithelial cells) are similar to the methods used for cancer cells.

[1] = system: CCD841 colon epithelium cells; experiment: Toxicity on CCD841 colon epithelium cells; assay type: cell-based; settings: all concentrations tested (16 to 128 nM); 48 hours; FIG. 15
Source text: as §1

| Compound | potency rank among test articles (HT-29 (colon cancer)) | reduction in AML12 liver cell counts (AML12 liver cells) | decrease in the number of CCD841 colon epithelium cells [1] |
| --- | --- | --- | --- |
| Nc1nc(=O)c2c(CCc3ccc(C(=O)N[C@@H](CCC(=O)N[C@@H](CCC(=O)N[C@@H](CCC(=O)N[C@@H](CCC(=O)N[C@@H](CCC(=O)N[C@@H](CCC(=O)O)C(=O)O)C(=O)O)C(=O)O)C(=O)O)C(=O)O)C(=O)O)cc3)c[nH]c2[nH]1 [gG6, pemetrexed L-gamma hexaglutamate] | least potent | – | – |
| Nc1nc2[nH]cc(CCc3ccc(C(=O)N[C@@H](CCC(=O)O)C(=O)O)cc3)c2c(=O)[nH]1 [pemetrexed] | – | approximately 40% | ≥ 50% |
